Like-named read-outs stand apart in the source and are kept apart here.
Tests used:
[1] = test system: cucumber seeds
Description: The germination test was performed according to Annex to chapter 5, International Rules for Seed Testing, International Seed Testing Association, Zurich, Switzerland, 1996.

[2] = test system: Acidovorax citrulli; settings: melon seeds
Text: The vacuum cycles continue until floating seeds are no longer sinking. The floating seeds are then removed and discarded.
The standard protocol can be obtained from the National Seed Health System, a program authorized by USDA-APHIS and administered by the Iowa State University Seed Science Center to accredit both private and public entities to perform certain activities needed to support the issuance of Federal phytosanitary certificates for the international movement of seed.

How did the Germination % ([1]; Na-Dichloroisocyanurate 0.4%, standard disinfection) turn out when `O=c1nc([O-])n(Cl)c(=O)n1Cl.[Na+]` [Na-Dichloroisocyanurate] was run?
The Germination % was 96%.

And the Germination % ([1]; Na-Dichloroisocyanurate 0.4%, vacuum infiltration)?
The Germination % was 100%.

And the Germination % ([1]; Na-Dichloroisocyanurate 0.75%, vacuum infiltration)?
The Germination % was 100%.

What about the Germination % ([1]; Na-Dichloroisocyanurate 1.5%, vacuum infiltration) of the same compound?
The Germination % was 100%.

And the Germination % ([1]; Na-Dichloroisocyanurate 2.0%, vacuum infiltration)?
The Germination % was 100%.

And the “BFB infection after standard disinfection” value ([2]; disinfected twice by standard protocol, 1% and 2%, 10 min)?
The value was “still heavily infested”.

What about the “BFB by sweat-box assay” value ([2]; vacuum infiltration, 0.5% solution, floating fraction, 10,000 seeds) of the same compound?
Its value is “positive”.

And the “BFB health test (PCR, seedling grow-out, sweat box)” value ([2]; vacuum infiltration, 0.5% solution, sinking fraction, 40,000 seeds tested)?
Its value is “None of the seeds was found infected”.
